Source: patent US20240041042A1, “1-(PYRIDYL)-5-AZINYLPYRAZOLE DERIVATIVES, AND THEIR USE FOR CONTROL OF UNDESIRED PLANT GROWTH” (Bayer Aktiengesellschaft, priority 2020, published 2024)

How the values were obtained:
Type in all cases: in vivo
Setaria viridis (SETVI) [1] = assay: Pre-emergence herbicidal action against SETVI
Procedure, shortened: (§1)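 Pre-emergence soil-surface spray of compound, formulated as wettable powder or emulsion concentrate, in aqueous suspension or emulsion with 0.5% additive (600 l/ha; rate 320 g/ha or less). Activity rated visually after roughly 3 weeks in the greenhouse as a percentage of untreated controls, 0% meaning no difference.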

Viola tricolor (VIOTR) [2] = assay: Pre-emergence herbicidal action against VIOTR
Procedure, shortened: as §1

[3] = test system: Matricaria inodora (MATIN); assay: Post-emergence herbicidal action against MATIN
Procedure, shortened: (§2)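 Post-emergence greenhouse spray, one-leaf stage, 600 l/ha water plus 0.5% additive; WP or EC formulations; application rates 320 g/ha or lower. Visual % damage vs untreated controls at ~3 weeks.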

[4] = test system: Pharbitis purpurea (PHBPU); assay: Post-emergence herbicidal action against PHBPU
Procedure, shortened: as §2

[5] = test system: Pharbitis purpurea (PHBPU); assay: Pre-emergence herbicidal action against PHBPU
Procedure, shortened: as §1

[6] = test system: Amaranthus retroflexus (AMARE); assay: Pre-emergence herbicidal action against AMARE; details: visual scoring after about 3 weeks vs untreated controls
Procedure, shortened: as §1

Viola tricolor (VIOTR) [7] = assay: Post-emergence herbicidal action against VIOTR
Procedure, shortened: as §2

[8] = test system: Echinochloa crus-galli (ECHCG); assay: Pre-emergence herbicidal action against ECHCG
Procedure, shortened: as §1

[9] = test system: Digitaria sanguinalis (DIGSA); assay: Post-emergence herbicidal action against DIGSA; details: visual rating about 3 weeks after treatment
Procedure, shortened: as §2

[10] = test system: Abutilon theophrasti (ABUTH); assay: Post-emergence herbicidal action against ABUTH; details: visual rating about 3 weeks after treatment vs untreated controls (100% = plants have died, 0% = like control plants)
Procedure, shortened: as §2

Oryza sativa (ORYSA) = details: crop plant compatibility, 80 g/ha, effect in comparison to untreated controls
Procedure, shortened: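 Test crops were treated 2 to 3 weeks after sowing, once they reached one leaf, by spraying compound in water with 0.5% additive at 600 l/ha. Visual scoring compared them with untreated controls roughly 3 weeks on, and appendices a, b and c denote different doses.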

Setaria viridis (SETVI) [11] = assay: Post-emergence herbicidal action against SETVI
Procedure, shortened: as §2

[12] = test system: Alopecurus myosuroides (ALOMY); assay: Pre-emergence herbicidal action against ALOMY; details: scored visually after about 3 weeks, 100% = plants have died
Procedure, shortened: as §1

Lolium rigidum (LOLRI) [13] = assay: Pre-emergence herbicidal action against LOLRI
Procedure, shortened: as §1

[14] = test system: Echinochloa crus-galli (ECHCG); assay: Post-emergence herbicidal action against ECHCG
Procedure, shortened: as §2

Avena fatua (AVEFA) = assay: Pre-emergence herbicidal action against AVEFA; details: visual scoring after about 3 weeks vs untreated controls
Procedure, shortened: as §1

[15] = test system: Matricaria inodora (MATIN); assay: Pre-emergence herbicidal action against MATIN
Procedure, shortened: as §1

[16] = test system: Polygonum convolvulus (POLCO); assay: Pre-emergence herbicidal action against POLCO
Procedure, shortened: as §1

[17] = test system: Abutilon theophrasti (ABUTH); assay: Pre-emergence herbicidal action against ABUTH; details: 100% = plants have died
Procedure, shortened: as §1

Lolium rigidum (LOLRI) [18] = assay: Post-emergence herbicidal action against LOLRI; details: dosage 320 g/ha
Procedure, shortened: as §2

[19] = test system: Digitaria sanguinalis (DIGSA); assay: Pre-emergence herbicidal action against DIGSA
Procedure, shortened: as §1

[20] = test system: Verconica persica (VERPE); assay: Pre-emergence herbicidal action against VERPE
Procedure, shortened: as §1

[21] = test system: Amaranthus retroflexus (AMARE); assay: Post-emergence herbicidal action against AMARE; details: 320 g/ha, visual rating about 3 weeks after treatment
Procedure, shortened: as §2

[22] = test system: Alopecurus myosuroides (ALOMY); assay: Post-emergence herbicidal action against ALOMY; details: 320 g/ha, visual rating about 3 weeks after treatment vs untreated controls (100% = plants have died, 0% = like control plants)
Procedure, shortened: as §2

[23] = test system: Polygonum convolvulus (POLCO); assay: Post-emergence herbicidal action against POLCO; details: dosage 320 g/ha
Procedure, shortened: as §2

[24] = test system: Verconica persica (VERPE); assay: Post-emergence herbicidal action against VERPE
Procedure, shortened: as §2

[25] = 80 g/ha, scored visually after about 3 weeks vs untreated controls, 0% = like control plants
[26] = Dosage column 320 g/ha (title prints 3200 g/ha), scored visually after about 3 weeks
[27] = 80 g/ha, visual scoring after about 3 weeks vs untreated controls

C[C@@H](Oc1nn(-c2nc(F)ccc2F)c(-c2cncc(F)c2)c1Cl)C(=O)O [Example I-159]
Pre-emergence action against SETVI in % (Setaria viridis (SETVI) [1]; dosage 80 g/ha): 90%
Pre-emergence action against SETVI in % (Setaria viridis (SETVI) [1]; dosage 320 g/ha): 100%
Pre-emergence action against VIOTR in % (Viola tricolor (VIOTR) [2]; 320 g/ha, Viola tricolor): 100%
Pre-emergence action against VIOTR in % (Viola tricolor (VIOTR) [2]; dosage 80 g/ha): 100%
Post-emergence action against MATIN in % ([3]; dosage 320 g/ha): 80%
Post-emergence action against PHBPU in % ([4]; dosage 80 g/ha): 80%
Post-emergence action against PHBPU in % ([4]; dosage 320 g/ha): 80%
Pre-emergence action against PHBPU in % ([5]; dosage 80 g/ha): 80%
Pre-emergence action against PHBPU in % ([5]; dosage 320 g/ha): 90%
Pre-emergence action against AMARE in % ([6]; 80 g/ha): 90%
Pre-emergence action against AMARE in % ([6]; 320 g/ha): 100%
Post-emergence action against VIOTR in % (Viola tricolor (VIOTR) [7]; 320 g/ha): 80%
Pre-emergence action against ECHCG in % ([8]; dosage 80 g/ha): 90%
Pre-emergence action against ECHCG in % ([8]; dosage 320 g/ha): 90%
Post-emergence action against DIGSA in % ([9]; 320 g/ha): 80%
Post-emergence action against ABUTH in % ([10]; 320 g/ha): 80%
Post-emergence action against ORYSA in % (Oryza sativa (ORYSA)): 10%
Post-emergence action against SETVI in % (Setaria viridis (SETVI) [11]; dosage 320 g/ha): 80%
Pre-emergence action against ALOMY ([12]; 80 g/ha): 80%
Pre-emergence action against ALOMY ([12]; 320 g/ha): 90%
Pre-emergence action against LOLRI in % (Lolium rigidum (LOLRI) [13]; dosage 80 g/ha): 90%
Pre-emergence action against LOLRI in % (Lolium rigidum (LOLRI) [13]; dosage 320 g/ha): 100%
Post-emergence action against ECHCG in % ([14]; dosage 80 g/ha): 80%
Post-emergence action against ECHCG in % ([14]; dosage 320 g/ha): 90%
Pre-emergence action against AVEFA in % (Avena fatua (AVEFA); 320 g/ha): 90%
Pre-emergence action against MATIN in % ([15]; dosage 80 g/ha): 90%
Pre-emergence action against MATIN in % ([15]; dosage 320 g/ha): 90%
Pre-emergence action against POLCO in % ([16]; dosage 80 g/ha): 90%
Pre-emergence action against POLCO in % ([16]; dosage 320 g/ha): 90%
Pre-emergence action against ABUTH [17, 25]: 80%
Pre-emergence action against ABUTH [17, 26]: 80%
Post-emergence action against LOLRI in % (Lolium rigidum (LOLRI) [18]): 80%
Pre-emergence action against DIGSA in % [19, 27]: 90%
Pre-emergence action against DIGSA in % ([19]; dosage 320 g/ha): 100%
Pre-emergence action against VERPE in % ([20]; dosage 320 g/ha): 100%

CCOC(=O)[C@@H](C)Oc1nn(-c2nc(F)ccc2F)c(-c2cncc(F)c2)c1Cl [Example I-208]
Pre-emergence action against SETVI in % (Setaria viridis (SETVI) [1]; dosage 80 g/ha): 90%
Pre-emergence action against SETVI in % (Setaria viridis (SETVI) [1]; dosage 320 g/ha): 100%
Post-emergence action against AMARE in % [21]: 80%
Pre-emergence action against VIOTR in % (Viola tricolor (VIOTR) [2]; 320 g/ha, Viola tricolor): 100%
Pre-emergence action against VIOTR in % (Viola tricolor (VIOTR) [2]; dosage 80 g/ha): 100%
Post-emergence action against MATIN in % ([3]; dosage 80 g/ha): 80%
Post-emergence action against MATIN in % ([3]; dosage 320 g/ha): 80%
Post-emergence action against PHBPU in % ([4]; dosage 80 g/ha): 80%
Post-emergence action against PHBPU in % ([4]; dosage 320 g/ha): 90%
Pre-emergence action against PHBPU in % ([5]; dosage 80 g/ha): 90%
Pre-emergence action against PHBPU in % ([5]; dosage 320 g/ha): 90%
Post-emergence action against ALOMY in % [22]: 80%
Pre-emergence action against AMARE in % ([6]; 80 g/ha): 90%
Pre-emergence action against AMARE in % ([6]; 320 g/ha): 100%
Post-emergence action against VIOTR in % (Viola tricolor (VIOTR) [7]; 80 g/ha): 80%
Post-emergence action against VIOTR in % (Viola tricolor (VIOTR) [7]; 320 g/ha): 80%
Pre-emergence action against ECHCG in % ([8]; dosage 80 g/ha): 90%
Pre-emergence action against ECHCG in % ([8]; dosage 320 g/ha): 100%
Post-emergence action against DIGSA in % ([9]; 80 g/ha): 80%
Post-emergence action against DIGSA in % ([9]; 320 g/ha): 90%
Post-emergence action against ABUTH in % ([10]; 80 g/ha): 80%
Post-emergence action against ABUTH in % ([10]; 320 g/ha): 90%
Post-emergence action against ORYSA in % (Oryza sativa (ORYSA)): 0%
Post-emergence action against POLCO in % [23]: 80%
Post-emergence action against SETVI in % (Setaria viridis (SETVI) [11]; dosage 80 g/ha): 80%
Post-emergence action against SETVI in % (Setaria viridis (SETVI) [11]; dosage 320 g/ha): 80%
Pre-emergence action against ALOMY ([12]; 80 g/ha): 90%
Pre-emergence action against ALOMY ([12]; 320 g/ha): 100%
Pre-emergence action against LOLRI in % (Lolium rigidum (LOLRI) [13]; dosage 80 g/ha): 90%
Pre-emergence action against LOLRI in % (Lolium rigidum (LOLRI) [13]; dosage 320 g/ha): 100%
Post-emergence action against VERPE in % ([24]; 320 g/ha, VERPE): 80%
Post-emergence action against VERPE in % ([24]; dosage 80 g/ha): 80%
Post-emergence action against ECHCG in % ([14]; dosage 80 g/ha): 80%
Post-emergence action against ECHCG in % ([14]; dosage 320 g/ha): 90%
Pre-emergence action against AVEFA in % (Avena fatua (AVEFA); 80 g/ha): 80%
Pre-emergence action against AVEFA in % (Avena fatua (AVEFA); 320 g/ha): 90%
Pre-emergence action against MATIN in % ([15]; dosage 80 g/ha): 90%
Pre-emergence action against MATIN in % ([15]; dosage 320 g/ha): 90%
Pre-emergence action against POLCO in % ([16]; dosage 80 g/ha): 90%
Pre-emergence action against POLCO in % ([16]; dosage 320 g/ha): 90%
Pre-emergence action against ABUTH [17, 25]: 80%
Pre-emergence action against ABUTH [17, 26]: 90%
Post-emergence action against LOLRI in % (Lolium rigidum (LOLRI) [18]): 80%
Pre-emergence action against DIGSA in % [19, 27]: 90%
Pre-emergence action against DIGSA in % ([19]; dosage 320 g/ha): 100%
Pre-emergence action against VERPE in % ([20]; dosage 80 g/ha): 90%
Pre-emergence action against VERPE in % ([20]; dosage 320 g/ha): 100%
